Laboratory results: patent US20250302862A1, “SMALL RNA DRUG FOR INHIBITING ACTIVITY OF CANCER CELLS” (Institute of Basic Medical Sciences Chinese Academy of …, priority 2022, published 2025)

Tests used:
Format in all cases: cell-based, human
breast cancer MCF7 cells = test: Concentration-dependent proliferation inhibition, MTS; conditions: gradient 0.01-100 noml/L, MTS after 48 h
Experimental: (§1) 1) Breast cancer MCF7 cells, breast cancer MDA-MB-231 cells, gastric cancer AGS cells, pancreatic cancer HS766T cells, pancreatic cancer ASPC-1 cells, and prostate cancer PC-3 cells with a cell density of more than 90% in 10 cm^2 plates were plated in 96-well according to the cell growth rate. Transfection was performed after 12 h, and the groups (3 wells per group) were divided as follows: • blank control group: 20 uL of opti-MEM • negative control group (NC group) and experimental group: • A. 10 uL of opti-MEM and 0.2 uL of iMax were mixed well for 5 min • B. 10 uL of opti-MEM and small RNA were mixed well (the concentration gradient of experimental group was set as: 0.01 noml/L, 0.03 noml/L, 0.1 noml/L, 0.39 noml/L, 0.78 noml/L, 1.56 noml/L, 3.125 noml/L, 6.25 noml/L, 12.5 noml/L, 25 noml/L, 50 noml/L, 100 noml/L; the final concentration of sRNA in NC group was 100 noml/L) • C. solution A and solution B were mixed well and let stand for 15 min, and then was added at a 20 uL system • Note: 100 uL of nuclease-free water was added to 2 nmol of small RNA dry powder for dissolution at a storage concentration of 20 umol/L
(§2) 2) Detection of cell viability: MTS detection was performed after 48 h.
(§3) Formulation of MTS detection solution was as follows: opti-MEM:MTS A solution:MTS B solution=100:20:1. After removing the supernatant, 100 uL of MTS detection solution was added to each well and incubated for 0.5-2 h. Absorbance values at wavelengths of 490 nm and 630 nm were measured in a microplate reader.
as §1, with “dishes” for “plates”, “96-well plates” for “96-well”

[1] = tested on: prostate cancer PC-3 cells; test: as above; conditions: gradient 0.01-100 noml/L, MTS after 48 h
Experimental: as §1, §2, §3
as §1, with “dishes” for “plates”, “96-well plates” for “96-well”

[2] = tested on: pancreatic cancer HS766T cells; test: as above; conditions: gradient 0.01-100 noml/L, MTS after 48 h
Experimental: as §1, §2, §3
as §1, with “dishes” for “plates”, “96-well plates” for “96-well”

gastric cancer AGS cells = test: as above; conditions: gradient 0.01-100 noml/L, MTS after 48 h
Experimental: as §1, §2, §3
as §1, with “dishes” for “plates”, “96-well plates” for “96-well”

[3] = tested on: pancreatic cancer ASPC-1 cells; test: as above; conditions: gradient 0.01-100 noml/L, MTS after 48 h
Experimental: as §1, §2, §3
as §1, with “dishes” for “plates”, “96-well plates” for “96-well”

[4] = tested on: pancreatic cancer PANC-1 cells; test: Apoptosis detection (Annexin V / PI); conditions: 100 nmol/L, jetPRIME, 72 h
Experimental: (§4) 1) PANC-1 cells and BXPC-3 cells with a cell density of more than 90% in 10 cm^2 dishes were plated in 12-well plates according to the cell growth rate, and transfected after 12 h, and the groups were divided as follows: • blank control group (4 wells): 100 uL of jetPRIME Buffer per well • negative control group (NC group) and experimental group (3 wells each): 100 uL of jetPRIME Buffer was mixed well with 3 uL of jetPRIME reagent and 5 uL of small RNA for each well and let stand for 15 min, and then was added to each well at a 100 uL system (final concentration 100 nmol/L) • Note: 100 uL of nuclease-free water was added to 2 nmol of small RNA dry powder for dissolution at a storage concentration of 20 umol/L
(§5) The supernatant and cells were collected after 72 h and washed twice with pre-chilled PBS. The 4 tubes of cells in the blank control group were added respectively with: (1) 200 uL of 1× binding buffer; (2) 200 uL of 1× binding buffer and 5 uL of Annexin V stain; (3) 200 uL of 1× binding buffer and 5 uL of PI stain; (4) 200 uL of 1× binding buffer, 5 uL of Annexin V stain and 5 uL of PI stain. 200 uL of 1× binding buffer, 5 uL of Annexin V stain and 5 uL of PI stain were added to each tube of both the NC group and the experimental group. The mixture was mixed well and filtered through 300 mesh filters. The live cell population and the position of quadrant gate were selected according to the blank control group, and then the apoptosis of the NC group and the experimental group was detected.
as §4, with “mixed” for “mixed well”, “per” for “for each”

[5] = tested on: pancreatic cancer BXPC-3 cells; test: Apoptosis detection (Annexin V / PI); conditions: 100 nmol/L, jetPRIME, 72 h
Experimental: as §4, §5
as §4, with “mixed” for “mixed well”, “per” for “for each”

For “MDM-sRNA-39: small RNA derived from Maytenus hookeri, sequence GGGAUUGUAGUUCAAUUGGUCAGAGCACC (listed as RNA, chemistry not given here)”, the “proliferation-inhibiting function (cell activity, MTS)” value (“proliferation-inhibiting function” below) (breast cancer MCF7 cells) was “concentration-dependent”, the “proliferation-inhibiting function” value [1] was “concentration-dependent” and the “proliferation-inhibiting function” value [2] was “concentration-dependent”. For the same substance, the “proliferation-inhibiting function” value (gastric cancer AGS cells) was “concentration-dependent”, the “proliferation-inhibiting function” value [3] was “concentration-dependent” and the apoptosis [4] was “promotes”. For the same substance, the apoptosis [5] was “promotes”.
With “MDM-sRNA-163: small RNA derived from Maytenus hookeri, sequence UGACUCUAGUCCGACUUUGUGAAAUGACU (listed as RNA, chemistry not given here)” the “proliferation-inhibiting function” value (breast cancer MCF7 cells) was “concentration-dependent”, the “proliferation-inhibiting function” value [1] was “concentration-dependent” and the “proliferation-inhibiting function” value [2] was “concentration-dependent”. The “proliferation-inhibiting function” value (gastric cancer AGS cells) was “concentration-dependent”, the “proliferation-inhibiting function” value [3] was “concentration-dependent” and the apoptosis [4] was “promotes”. The apoptosis [5] was “promotes”.
